Results published in US20250199004A1, “METHODS OF EVALUATING TREATMENT OUTCOME IN HIGH GRADE SEROUS OVARIAN CANCER” (THE REGENTS OF THE UNIVERSITY OF COLORADO, A BODY CORPORATE, priority 2018, published 2025).

What was measured:
[1] = system: TMEFF1 expression in OVCAR4 cells; test: TMEFF1 (CBX2 target gene) expression by qPCR; format: cell-based, human; settings: qPCR after treatment of OVCAR4 cells
Experimental: Ten candidate inhibitors were evaluated based on their ability to inhibit HGSOC cell viability. Dose response assays of all 10 inhibitors were conducted in OVCAR4, PEO1, and COV504 HGSOC cell lines to determine half inhibitory concentration (IC50) (FIG. 12 Panel A). We explored ability of these compounds to downregulate a CBX2 target gene, transmembrane protein with EGF-like and two follistatine-like domains 1 (TMEFF1) (FIG. 12 Panel B).
RNA was isolated using RNAeasy Plus Mini Kit (Qiagen, Hilden Germany) according to the manufacturer's protocol. NanoDrop spectrophotometry was used to measure concentration of extracted RNA. Luna Universal One-step RT qPCR kit (New England BioLabs, Ipswich, MA) was used on BioRad CFX96 (Bio-Rad, Hercules, CA). HPRT or GAPDH were used as internal control as stated in figure legend.

[2] = system: Histone H2A Lys119 ubiquitination (H2AK119ub); test: Western blot for H2AK119ub as marker of CBX2/PRC1 activity; format: cell-based, human
Experimental: CBX2 is a known subunit of PRC1, which is critical for normal development and functions as a transcriptional repressor. PRC1 is understood to have histone ubiquitin ligase activity, specifically targeting Histone H2A […] ubiquitination ([…]). In order to evaluate the impact of treatment with alisertib on the broader PRC1 complex, […] was used as a surrogate marker of CBX2 activity in the PRC1. OVCAR4 (***confirm) cells were treated with IC50 doses of each of the 10 candidate inhibitors, a Western blot for […] was compared to a beta-actin control (FIG. 12 Panel C). […] Finally, PRC1 target […] was used to evaluate the impact of treatment with alisertib on the broader PRC1 complex. OVCAR4 and PEO1 cells were treated with increasing doses of aliserib and western blots were performed to evaluate […] as a marker of PRC1 activity (FIG. 14 Panel F). Cell lysis was performed using radioimmunoprecipitation assay (RIPA) buffer (150 mM sodium chloride, Triton X-100, 0.5% sodium deoxycholate, 0.1% SDS [sodium dodecyl sulfate], 50 mM Tris, pH 8.0) supplemented with complete EDTA-free protease inhibitor cocktail (Roche), as well as NaF and NaV. Protein was quantified using bicinchoninic acid (BCA) protein assay (Thermo Fisher Scientific, Waltham, MA) and spectrophotometry. An 8% SDS polyacrylamide gel resolving gel was created with a 4% stacking gel. […]

[3] = system: OVCAR4 cells; test: Proliferation assay, parental vs CRISPR CBX2 knock out cells; format: cell-based, human; settings: OVCAR4 CRISPR/Cas9 CBX2 KO vs parental
Experimental: Examples 8-12: All drugs were suspended in DMSO at the concentration of 50 mM and aliquoted and stored in -80 C. 1000 cells were seeded in 96 well plate a day prior. 10 fold dilution of drugs in the cultureing media supplemented with FBS and penicillin/Streptomycin was added and cells were cultured until the cells in the no-drug added wells became confluent (5-8 days). Cells were washed with PBS twice and fixed with fixation buffer (10% Methanol and 10% Acetic acid in PBS) followed by staining with Cristal Violet staining solution (0.4% Cristal Violet in 20% Ethanol). […] CBX2 CRISPR knocked-out OVCAR4 cells were created by the University of Colorado Functional Genomics Facility using the IDT Alt-R RNP system. ALT-R crRNA and ATL-R tracrRNA were suspended at 100 μmol/L in nuclease-free IDTE pH7.5. The same volumes of ALT-R crRNA and ATL-R tracrRNA were mixed to prepare gRNA complex at 50μmol/L, heated at 95° C. for 5 minutes, and then were cooled to room temperature. The RNP complex was prepared with 150 pmol of gRNA and 125 pmol of Alt-R Cas9-NLS in final volume of 5 μL in PBS. Cells were harvested in Necleofector solution SF with supplement (Lonza, Basel, Switzerland) at a concentration of 1×10^6 cells per 100 μL. The transfection mix was made with 100 μL of cell suspension, 2.5 μL each of RNP complex, and 0.6 μL of 100 μL of Alt-R Cas9 Electroporation enhancer. […]

[4] = system: OVCAR4 cells; test: Ultra low dilution analysis (ULDA) of stemness; format: cell-based, human
Experimental: An ultralow dilutional assay (ULDA) utilizing the OVCAR4 HGSOC cell line was used to evaluate the functional impact of four inhibitors. The number of spheroids were plotted against the IC50 dose of each agent (FIG. 13 Panel B). The more significant the decrease in spheroids formation capacity, the more significant the decrease in stemness associated with treatment. […] Cells were trypsinized and filtered with a 40-micron filter, creating a single cell suspension. Cells were plated in 96 wells ultra-low attachment plates (CORNING #3474 this is flat bottom, and CORNING #7007: used u bottom for COV504) in 200 ul CSC media (DMEM/F12, 1× B27, 4% FBS, 100 U/ml penicillin/streptomycin, 20 ng/ml human EGF, 20 ng/ml human FGF). After 3 days, 100 μl of medium was gently taken out, then added drugs to final IC50 concentration. The media with drug was replaced with half volume every 4-5 days and cultured for 3 weeks. […] After 4 hours spheroid existence and color were evaluated under the microscope (Incucyte). Observation of purple spheroids confirmed the presence of live cells and were scored as 1. If no spheroids appreciated, or if purple spheroids were not observed it was scored as 0. […] The stem cell frequency was calculated using ultra low limiting dilution analysis (PMID: 19567251).

[5] = system: ID8 Trp53-/- Brca2-/- cells; test: Syngeneic mouse model, CBX2 intact vs CBX2 knock down tumors; format: in vivo, C57BL/6J mice; settings: 30 mg/kg PO, 28 days
Experimental: To further elucidate the dependence of alisertib on CBX2, an in vivo study was performed using a syngeneic mouse model with CBX2 intact compared to CBX2 knock down, undergoing treatment with alisertib. Measurements of mRNA expression confirmed that CBX2 knock down was effective (FIG. 15 Panel A). The mice were treated with vehicle control or 30 mg/kg alisertib for 28 days (FIG. 15 Panel B). Tumor-bearing mice were necropsied at the end of treatment and omental weight, number of dissemination sites, and total tumor weight were quantified (FIG. 15 Panels C-E, respectively). […] It can be concluded therefore, that the loss of CBX2 expression in an ovarian cancer model attenuates the anti-tumor response to alisertib. […] Tissue was also collected and processed for further analysis. […] In the second study, mice were treated with 30 mg/kg alisertib, PO, for 28 days, as described above. Due to the weight loss observed in the first study, we reduced treatment from 7 days per week to 5 days per week.

COc1cc(Nc2ncc3c(n2)-c2ccc(Cl)cc2C(c2c(F)cccc2OC)=NC3)ccc1C(=O)O [alisertib]
TMEFF1 expression [1]: significantly inhibited
H2AK119ub, surrogate marker of PRC1 activity ([2]; OVCAR4 and PEO1 cells, increasing doses): decreased in parallel with CBX2
Histone H2A Lys119 ubiquitination ([2]; OVCAR4 cells, IC50 dose, vs beta-actin control): decreased
IC50 in CBX2 KO cells compared to the parental cells [3]: ten times higher
impact on stemness through ULDA on knocking out CBX2 ([4]; OVCAR4 CBX2 KO vs parental): attenuated impact
stem cell frequency ([4]; treatment at IC50): decreased
number of dissemination sites: anti-tumor response in CBX2 knock down mice vs CBX2 intact mice [5]: significant attenuation
omental weight: anti-tumor response in CBX2 knock down mice vs CBX2 intact mice [5]: significant attenuation
total tumor weight: anti-tumor response in CBX2 knock down mice vs CBX2 intact mice [5]: significant attenuation
